Reference: patent publication EP2987533B1, “7-substituted piperazin-1-yl fluoroquinolone compounds, their use in the treatment of cancer, pharmaceutical compositions and a method for preparation” (priority 2014, dated 2016)

Experiments:
MDA-MB-435 = assay: NCI one-dose SRB growth assay; type: cell-based; details: Homo sapiens; MDA-MB-435 (Melanoma), 10^-5 M, 48 h; read-out: % Growth Inhibition (GI %)
Protocol: (§1) A primary anticancer assay was performed for an approximately 60 human tumor cell line panel derived from nine neoplastic diseases, in accordance with the protocol of the Drug Evaluation Branch, National Cancer Institute, Bethesda, MD (Monks A. et al., J. Natl. Cancer Inst 1991, 83, 757-766; Boyd M.R. and Paull K.D., Drug. Dev. Res. 1995, 34, 91-109; Shoemaker R.H., Nat. Rev. Cancer 2006, 6, 813-823). Briefly, tested compounds were added to the culture at a single concentration (10^-5M), and the cultures were incubated for 48 h. End point determinations were made with a protein binding dye, sulforhodamine B (SRB). The results for each tested compound were reported as the growth percentage of the treated cells when compared to that of the untreated control cells. The percentage growth was evaluated spectrophotometrically versus controls not treated with test agents.

SW-620 = assay: NCI one-dose SRB growth assay; type: cell-based; details: Homo sapiens; SW-620 (Colon Cancer), 10^-5 M, 48 h; read-out: % Growth Inhibition (GI %)
Protocol: as §1

IGROV1 = assay: NCI one-dose SRB growth assay; type: cell-based; details: Homo sapiens, IGROV-1; IGROV1 (Ovarian Cancer), 10^-5 M, 48 h; read-out: % Growth Inhibition (GI %)
Protocol: as §1

NCI/ADR-RES = assay: NCI one-dose SRB growth assay; type: cell-based; details: Homo sapiens; NCI/ADR-RES (Ovarian Cancer), 10^-5 M, 48 h; read-out: % Growth Inhibition (GI %)
Protocol: as §1

PC-3 = assay: NCI one-dose SRB growth assay; type: cell-based; details: Homo sapiens; PC-3 (Prostate Cancer), 10^-5 M, 48 h; read-out: % Growth Inhibition (GI %)
Protocol: as §1

BT-549 = assay: NCI one-dose SRB growth assay; type: cell-based; details: Homo sapiens; BT-549 (Breast Cancer), 10^-5 M, 48 h; read-out: % Growth Inhibition (GI %)
Protocol: as §1

MCF7 = assay: NCI one-dose SRB growth assay; type: cell-based; details: Homo sapiens; MCF7 (Breast Cancer), 10^-5 M, 48 h; read-out: % Growth Inhibition (GI %)
Protocol: as §1

SR = assay: NCI one-dose SRB growth assay; type: cell-based; details: Homo sapiens; SR (Leukemia), 10^-5 M, 48 h; read-out: % Growth Inhibition (GI %)
Protocol: as §1

SK-MEL-28 = assay: NCI one-dose SRB growth assay; type: cell-based; details: Homo sapiens; SK-MEL-28 (Melanoma), 10^-5 M, 48 h; read-out: % Growth Inhibition (GI %)
Protocol: as §1

MOLT-4 = assay: NCI one-dose SRB growth assay; type: cell-based; details: Homo sapiens; MOLT-4 (Leukemia), 10^-5 M, 48 h; read-out: % Growth Inhibition (GI %)
Protocol: as §1

A549/ATCC = assay: NCI one-dose SRB growth assay; type: cell-based; details: Homo sapiens; A549/ATCC (Non-Small Cell Lung Cancer), 10^-5 M, 48 h; read-out: % Growth Inhibition (GI %)
Protocol: as §1

U251 = assay: NCI one-dose SRB growth assay; type: cell-based; details: Homo sapiens, U-251; U251 (CNS Cancer), 10^-5 M, 48 h; read-out: % Growth Inhibition (GI %)
Protocol: as §1

SK-OV-3 = assay: NCI one-dose SRB growth assay; type: cell-based; details: Homo sapiens; SK-OV-3 (Ovarian Cancer), 10^-5 M, 48 h; read-out: % Growth Inhibition (GI %)
Protocol: as §1

KM12 = assay: NCI one-dose SRB growth assay; type: cell-based; details: Homo sapiens; KM12 (Colon Cancer), 10^-5 M, 48 h; read-out: % Growth Inhibition (GI %)
Protocol: as §1

T-47D = assay: NCI one-dose SRB growth assay; type: cell-based; details: Homo sapiens, T47D; T-47D (Breast Cancer), 10^-5 M, 48 h; read-out: % Growth Inhibition (GI %)
Protocol: as §1

LOX IMVI = assay: NCI one-dose SRB growth assay; type: cell-based; details: Homo sapiens; LOX IMVI (Melanoma), 10^-5 M, 48 h; read-out: % Growth Inhibition (GI %)
Protocol: as §1

SF-295 = assay: NCI one-dose SRB growth assay; type: cell-based; details: Homo sapiens; SF-295 (CNS Cancer), 10^-5 M, 48 h; read-out: % Growth Inhibition (GI %)
Protocol: as §1

NCI-H226 = assay: NCI one-dose SRB growth assay; type: cell-based; details: Homo sapiens; NCI-H226 (Non-Small Cell Lung Cancer), 10^-5 M, 48 h; read-out: % Growth Inhibition (GI %)
Protocol: as §1

COLO 205 = assay: NCI one-dose SRB growth assay; type: cell-based; details: Homo sapiens; COLO 205 (Colon Cancer), 10^-5 M, 48 h; read-out: % Growth Inhibition (GI %)
Protocol: as §1

HT29 = assay: NCI one-dose SRB growth assay; type: cell-based; details: Homo sapiens, HT-29; HT29 (Colon Cancer), 10^-5 M, 48 h; read-out: % Growth Inhibition (GI %)
Protocol: as §1

HOP-62 = assay: NCI one-dose SRB growth assay; type: cell-based; details: Homo sapiens; HOP-62 (Non-Small Cell Lung Cancer), 10^-5 M, 48 h; read-out: % Growth Inhibition (GI %)
Protocol: as §1

HCT-116 = assay: NCI one-dose SRB growth assay; type: cell-based; details: Homo sapiens; HCT-116 (Colon Cancer), 10^-5 M, 48 h; read-out: % Growth Inhibition (GI %)
Protocol: as §1

CNS cancer = assay: NCI five-dose SRB assay, subpanel average; details: 48 h; for GI50 / CC50: Homo sapiens; for GI50: read-out: GI50 (median growth inhibitory); for CC50: read-out: LC50 (median lethal); for TGI (total growth inhibitory): average over CNS cancer subpanel, five concentrations
breast cancer = assay: NCI five-dose SRB assay, subpanel average; details: 48 h; for GI50 / CC50: Homo sapiens; for GI50: read-out: GI50 (median growth inhibitory); for CC50: read-out: LC50 (median lethal); for TGI (total growth inhibitory): average over breast cancer subpanel, five concentrations
leukemia = assay: NCI five-dose SRB assay, subpanel average; details: 48 h; for GI50 / CC50: Homo sapiens; for GI50: read-out: GI50 (median growth inhibitory); for CC50: read-out: LC50 (median lethal); for TGI (total growth inhibitory): average over leukemia subpanel, five concentrations
prostate cancer = assay: NCI five-dose SRB assay, subpanel average; details: 48 h; for GI50 / CC50: Homo sapiens; for GI50: read-out: GI50 (median growth inhibitory); for CC50: read-out: LC50 (median lethal); for TGI (total growth inhibitory): average over prostate cancer subpanel, five concentrations

Structure (SMILES) | inhibition at 10 µM (MDA-MB-435) [%] | inhibition at 10 µM (SW-620) [%] | inhibition at 10 µM (IGROV1) [%] | inhibition at 10 µM (NCI/ADR-RES) [%] | inhibition at 10 µM (PC-3) [%] | inhibition at 10 µM (BT-549) [%] | inhibition at 10 µM (MCF7) [%] | inhibition at 10 µM (SK-MEL-28) [%] | inhibition at 10 µM (MOLT-4) [%] | inhibition at 10 µM (A549/ATCC) [%] | inhibition at 10 µM (U251) [%] | inhibition at 10 µM (SK-OV-3) [%] | inhibition at 10 µM (KM12) [%] | inhibition at 10 µM (T-47D) [%] | inhibition at 10 µM (LOX IMVI) [%] | inhibition at 10 µM (SF-295) [%] | inhibition at 10 µM (NCI-H226) [%] | inhibition at 10 µM (COLO 205) [%] | inhibition at 10 µM (HT29) [%] | inhibition at 10 µM (HCT-116) [%] | further results
O=C(O)c1cn(C2CC2)c2cc(N3CCN(S(=O)(=O)c4ccc(Cl)cc4Cl)CC3)c(F)cc2c1=O [Compound 2b] | < 10 | < 10 | < 10 | < 10 | 18.9 | 13.7 | 82.4 | 49.1 | 24.1 | < 10 | < 10 | < 10 | < 10 | 26.4 | 38.6 | < 10 | 39.7 | 11.9 | < 10 | 13.4 | inhibition at 10 µM (SR): 17.7%; inhibition at 10 µM (HOP-62): 11.8%
CCn1cc(C(=O)O)c(=O)c2cc(F)c(N3CCN(S(=O)(=O)c4ccc(Cl)cc4Cl)CC3)cc21 [Compound 2a] | 87.2 | 83.7 | 92.5 | 90.7 | 98.4 | > 100 | 10.8 | < 10 | 98.2 | 98 | 87.9 | 98.3 | 90.6 | 98.3 | > 100 | > 100 | 86.9 | > 100 | 98.1 | 93.6 | GI50 (CNS cancer): 3.03 µM; CC50 (CNS cancer): 77.2 µM; TGI (total growth inhibitory) (CNS cancer): 34.84 µM; GI50 (breast cancer): 2.51 µM; CC50 (breast cancer): 88.1 µM; TGI (total growth inhibitory) (breast cancer): 8.44 µM; GI50 (leukemia): 3.07 µM; CC50 (leukemia): > 100 µM; TGI (total growth inhibitory) (leukemia): 62.54 µM; inhibition at 10 µM (SR): > 100%; inhibition at 10 µM (HOP-62): 80.5%; GI50 (prostate cancer): 2.62 µM; CC50 (prostate cancer): > 100 µM; TGI (total growth inhibitory) (prostate cancer): 8.72 µM
CCn1cc(C(=O)O)c(=O)c2cc(F)c(N3CCN(S(=O)(=O)c4ccc(Cl)cc4)CC3)cc21 [Compound 1a] | 74.9 | 76 | 90.6 | 31.3 | 74.7 | 87.4 | 85.7 | 55.4 | 76.4 | 84.4 | 88 | 59.2 | 95.7 | 58.9 | 80.1 | 96.1 | 39.9 | 87.9 | 92.1 | 95.2 | GI50 (CNS cancer): 3.57 µM; CC50 (CNS cancer): > 100 µM; TGI (total growth inhibitory) (CNS cancer): 70.26 µM; GI50 (breast cancer): 2.95 µM; CC50 (breast cancer): > 100 µM; TGI (total growth inhibitory) (breast cancer): 54.63 µM; GI50 (leukemia): 2.89 µM; CC50 (leukemia): > 100 µM; TGI (total growth inhibitory) (leukemia): 80.96 µM; GI50 (prostate cancer): 3.21 µM; CC50 (prostate cancer): > 100 µM; TGI (total growth inhibitory) (prostate cancer): 54.11 µM
